In patent US5358936A, “Anionic furanose derivatives, methods of making and using the same” (Gordon; Paul, priority 1991, dated 1994):
“Also recorded” adds a separate entry of the source. Where a name gives a salt, the structure may show the parent alone. Read-outs that look alike come from different tables or passages of the source.

Experiments:
[1] = tested on: gastric mucosal ulcers; experiment: Healing of established gastric ulcers induced by acetic acid (Example 34); type: in vivo, rat; conditions: rat, in vivo; tripotassium salt
From the text: To evaluate drug effects on peptic ulcer healing, gastric mucosal ulcers were produced in rats, after a two day fast, by a modification of the method of Konturek et al., Am. J. Med., Vol. 86, 6A, 32 (1989). Briefly, to produce a mucosal ulcer, Konturek et al. applied 100 percent acetic acid for twenty seconds to the stomach serosa through a small cylindrical mold, 4.2 mm in diameter. The aim here was to make ulceration more severe than was achieved by the Konturek group so that spontaneous healing would not be as pronounced as they found in the controls, over an experimental period of seven days.
All drugs studied were suspended in 0.25 percent (by weight) aqueous methylcellulose solution as the vehicle or diluent, which also served as the placebo given to the controls. Treatments were given once daily by oral gavage, in one milliliter of vehicle. The treatment groups were: Control; Sucralfate at 200 mg/kg; and Compound III:Al at 200 mg/kg.
At the end of the treatment period, stomachs were removed, ulcer diameters were measured, and determination was made of the presence or absence of perforation.
A second study was carried out in which ulcer evolution was permitted to take place over five additional days, in the absence and presence of treatment with Sucralfate.
A third study was begun one day following the start of study 2, in which ulcer evolution was allowed to take place over five additional days, in the absence and presence of treatment with Compound III:Al.
In another study, after ulcer induction as above, a different dosage protocol was employed at 24 hours to evaluate the interaction of Compound III and orally administered sucralfate on ulcer healing. […] Here, daily drug doses of the following were used: (a) sucralfate at 200 mg/kg, alone and (b) in combination with 80 mg/kg Compound III given by mouth at -45 minutes, and, in a third group, (c) in combination with 10 mg/kg Compound III given IV also at -45 minutes. In this interaction study, drug treatment was continued for three and not five days, as was the case for the above studies, followed by passage of two additional non-treatment days before sacrifice of animals for evaluation of stomach ulcer area and perforation.
Data from all ulcer-healing studies employing a drug dosage of 200 mg/kg and the same ulcerogenesis protocol were pooled as to the frequency of gastric perforation observed on day five, not shown separately, with the day six perforation data shown above.

[2] = tested on: rat paw; experiment: Rat paw edema provoked by neutral proteases (Example 32); type: in vivo; conditions: two hours; SOD IV; Compound III IP and IV
Procedure: Both tryptic activity and collagenase activity are components of the tissue-injuring neutral proteinase activities secreted by neutrophils. Collagenase activity has also been associated with injury to cartilage; and, in another context, with the micro-injury to blood vessels that permits the extravasation and metastasis of, and by, tumor cells.
The effects of Compound III on rat and mouse paw edema as provoked by injection of these enzymes were evaluated. SOD injected IV and Compound III injected IP and IV at zero time, (as in Example 25), inhibited edema at two hours by from 33-40 percent, in both species. […] Both drug effects were significant by t test, SOD at P<0.05 and Compound III at P<0.01.

[3] = tested on: rat paw; experiment: Post-ischemic reperfusion paw swelling (Example 22); type: in vivo, Sprague Dawley male rats; conditions: for % Change as a result of treatment / Paw swelling, Mean ± SE: another study; for Paw swelling, Mean ± SE: i.p. 45 minutes prior; for Post-ischemic reperfusion 30 minute paw swelling, Mn ± SE: P < 0.02
In short: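 Male Sprague Dawley rats (240-280 g) were dosed intraperitoneally 45-60 min before a tourniquet was placed on the left hind leg under ether anesthesia. Injury taken as the increase in dorsoventral foot diameter (caliper), mainly 30 min into reperfusion, as mean ± SE, n = 5-6; allopurinol was the reference treatment.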

[4] = tested on: foot pad; experiment: Inflammation provoked by carrageenan injection (Example 25); type: in vivo, mice
[5] = tested on: gastric ulcers; conditions: 50 mg/kg oral gavage 45 minutes before; for Frequency of ulcer-bearing rats: combined groups P<0.01
Procedure: In this method, a relatively large amount of ethanol is administered to rats by oral gavage (1.0 ml/200 gm), a procedure widely used to produce ordinary gastric ulceration. This injection, however, is given in combination with the intraperitoneal injection of heparin sulfate (10 mg/kg).
Compound III treatment was 50 mg/kg by oral garage in distilled water as diluent, at 45 minutes before ulcer induction.
The effects of ethanol alone and ethanol plus Compound III were assessed four hours after ethanol administration. The effects of ethanol plus heparin and ethanol plus heparin plus Compound III were assessed 24 hours after administration of the ulcer inducing combination. Ulcer formation was assessed as discussed in Example 20.
In this and the following examples, the potassium salt of the drug indicated by a Roman numeral was used; i.e., M is potassium (K^+).

[6] = Dissolution and buffering of suspensions, HCl titration (Example 16); conditions: HCl titration
From the text: Note that the term "apparent pK" in this context is meant to encompass the maximization of buffering that come both from solid-state dissolution and its titration as solute.

Compound: CC1(C)O[C@H]2O[C@H]([C@@H](COS(=O)(=O)O)OS(=O)(=O)O)[C@H](OS(=O)(=O)O)[C@H]2O1 [Compound III, 1,2-O-(2-Propylidene)-3,5,6-tri-O-sulfo-α-D-glucofuranose, tripotassium salt]
- effect on established ulcers, in words [1]: used alone did not enhance the healing process; also recorded: able to prevent the perforation of established ulcers
- inhibition of edema [2]: 33-40%
- % Change as a result of treatment ([3]; reperfusion time 20 mins., i.p.): -46%
- Paw swelling, Mean ± SE ([3]; reperfusion time 20 mins., control 8.20 ± 1.02): 4.60 ± 0.40 0.1 mm
- % Change as a result of treatment ([3]; reperfusion time 30 mins., i.p.): -36%
- Paw swelling, Mean ± SE ([3]; reperfusion time 30 mins., control 6.60 ± 0.87): 4.20 ± 0.37 0.1 mm
- inhibition of ischemic rat paw edema ([3]; oral treatment route, after 20 minutes): 44%
- Swelling change as a result of treatment ([3]; study A, 30 minutes reperfusion, 0.2 mg/kg i.p.): -53%
- Post-ischemic reperfusion 30 minute paw swelling, Mn ± SE ([3]; study A, Compound III 0.2 mg/kg i.p. 45-60 minutes before tourniquet, control 12.7 ± 0.98): 6.0 ± 0.32 0.1 mm
- Swelling change as a result of treatment ([3]; study B, 30 minutes, i.p., Compound III 0.2 mg/kg, allopurinol 20 mg/kg): -40%
- Post-ischemic reperfusion 30 minute paw swelling, Mn ± SE ([3]; study B, i.p., Compound III 0.2 mg/kg, allopurinol 20 mg/kg, control 20.5 ± 0.76): 12.2 ± 0.70 0.1 mm
- Post-ischemic reperfusion 30 minute paw swelling, Mn ± SE ([3]; study C, 0.2 mg/kg i.p., control 18.4 ± 0.54): 10.2 ± 0.28 0.1 mm
- Swelling change as a result of treatment ([3]; study C, 30 minutes, 0.2 mg/kg i.p.): -45%
- reduction in swelling ([4]; subcutaneous, ibuprofen 50 mg/kg, Compound III 30 mg/kg, not significant): 26%
- Swelling Change ([4]; two hours, SOD 100 units IV, Compound III 50 mg/kg IV + 50 mg/kg IP): -74%
- Foot-Pad Swelling ([4]; two hours, SOD 100 units IV, Compound III 50 mg/kg IV + 50 mg/kg IP, control 3.8 ± 0.67): 0.82 ± 0.46 0.1 mm
- Frequency of rats with bleeding ulcers ([5]; ethanol + heparin, 24 hours, P<0.01): 0% of Total in Group
- Frequency of ulcer-bearing rats ([5]; ethanol + heparin, 24 hours): 25% of Total in Group
- Frequency of rats with bleeding ulcers ([5]; ethanol, four hours): 0% of Total in Group
- Frequency of ulcer-bearing rats ([5]; ethanol, four hours): 11% of Total in Group
- buffering action, in words [6]: no buffering power
